Reference: ChEMBL document CHEMBL4610123, “Structure-Based Drug Discovery of N-((R)-3-(7-Methyl-1H-indazol-5-yl)-1-oxo-1-(((S)-1-oxo-3-(piperidin-4-yl)-1-(4-(pyridin-4-yl)piperazin-1-yl)propan-2-yl)amino)propan-2-yl)-2'-oxo-1',2'-dihydrospiro[piperidine-4,4'-pyrido[2,3-d][1,3]oxazine]-1-carboxamide (HTL22562): A Calcitonin Gene-Related …” (J Med Chem, 2020)
Converted amounts (≈) assume the structure as drawn.

Assays:
[1] = molecular target: T1, Calcitonin-gene-related peptide receptor, CALCRL/RAMP1 (Homo sapiens, UniProt O60894+Q16602); experiment: Antagonist activity at human CGRP receptor in human SK-N-MC cells assessed as inhibition of CGRP-induced cAMP production preincubated for 30 mins followed by CGRP addition and measured after 30 mins by HTRF assay; type: functional, cell-based
T1 sequence (O60894 whole entry): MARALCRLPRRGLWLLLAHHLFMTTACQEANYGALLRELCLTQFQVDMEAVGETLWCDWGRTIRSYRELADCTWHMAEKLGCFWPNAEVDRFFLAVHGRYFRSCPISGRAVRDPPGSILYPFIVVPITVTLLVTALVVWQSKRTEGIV
T1 sequence (Q16602 whole entry): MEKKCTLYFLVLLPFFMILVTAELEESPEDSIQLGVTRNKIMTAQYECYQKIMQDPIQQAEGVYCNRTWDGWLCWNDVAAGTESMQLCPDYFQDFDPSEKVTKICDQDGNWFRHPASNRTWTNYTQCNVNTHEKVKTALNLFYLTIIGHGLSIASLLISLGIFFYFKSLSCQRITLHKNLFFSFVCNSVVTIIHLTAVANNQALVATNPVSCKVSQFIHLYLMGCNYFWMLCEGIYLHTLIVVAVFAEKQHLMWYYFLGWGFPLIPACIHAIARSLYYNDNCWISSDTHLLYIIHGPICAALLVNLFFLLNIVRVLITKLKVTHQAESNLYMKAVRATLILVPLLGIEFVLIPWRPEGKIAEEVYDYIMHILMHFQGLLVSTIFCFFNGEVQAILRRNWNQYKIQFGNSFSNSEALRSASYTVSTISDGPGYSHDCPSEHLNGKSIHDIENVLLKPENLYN

[2] = Clearance in rat at 2 mg/kg, iv using 10% DMAC[…] Solutol HS15/80% saline formulation; type: ADME, organism-based; details: in vivo
[3] = molecular target: T1, Calcitonin-gene-related peptide receptor, CALCRL/RAMP1; experiment: Displacement of [3H]telcagepant from recombinant human CLR/RAMP1 expressed in Sf21 insect cell membranes measured after 60 mins by microbeta scintillation counting method
[4] = Thermodynamic solubility of the compound at pH 6; type: physicochemical; details: buffer, read-out: Therm_solubility
[5] = Thermodynamic solubility of the compound at pH 7.4; type: physicochemical; details: buffer, read-out: Therm_solubility
[6] = Clearance in rat at 2 mg/kg, iv using 100% acidified saline formulation; type: ADME, organism-based; details: in vivo
[7] = Clearance in rat at 0.5 mg/kg, iv; type: ADME, organism-based; details: in vivo

SMILES	pKb [1]	clearance [2]	further results
O=C(N[C@@H](CC1CCNCC1)C(=O)N1CCN(c2ccncc2)CC1)[C@@H](Cc1cc(Br)c(O)c(Br)c1)NC(=O)N1CCC(n2c(=O)[nH]c3ncccc32)CC1	10.8	28 mL/min/kg	–
Cc1cc(C[C@@H](NC(=O)N2CCC(n3c(=O)[nH]c4ncccc43)CC2)C(=O)N[C@@H](Cc2ccncc2)C(=O)N2CCN(c3ccncc3)CC2)cc2cn[nH]c12	10	–	Ki [3]: 0.1 nM; solubility thermodynamic [4]: 1770 µM (≈ 1340 µg/mL); solubility thermodynamic [5]: 230 µM (≈ 174 µg/mL); clearance [6]: 87 mL/min/kg
Cc1cc(C[C@@H](NC(=O)N2CCC(n3c(=O)[nH]c4ncccc43)CC2)C(=O)N[C@@H](CC2CCNCC2)C(=O)N2CCN(c3ccncc3)CC2)cc2cn[nH]c12	–	–	clearance [7]: 55 mL/min/kg
Cc1cc(C[C@@H](NC(=O)N2CCC(n3c(=O)[nH]c4ncccc43)CC2)C(=O)N[C@@H](CCCCN)C(=O)N2CCN(c3ccncc3)CC2)cc2cn[nH]c12	11	–	Ki [3]: 0.0251 nM
Cc1cc(C[C@@H](NC(=O)N2CCC(N3Cc4ccccc4NC3=O)CC2)C(=O)N[C@@H](CC2CCNCC2)C(=O)N2CCN(c3ccncc3)CC2)cc2cn[nH]c12	10.1	6 mL/min/kg	–
Cc1cc(C[C@@H](NC(=O)N2CCC(c3cc4ccccc4[nH]c3=O)CC2)C(=O)N[C@@H](CC2CCNCC2)C(=O)N2CCN(c3ccncc3)CC2)cc2cn[nH]c12	9.8	31 mL/min/kg	solubility thermodynamic [4]: 10 µM (≈ 7.73 µg/mL)
O=C(N[C@@H](CC1CCNCC1)C(=O)N1CCN(c2ccncc2)CC1)[C@@H](Cc1cc(Br)c(O)c(Br)c1)NC(=O)N1CCC(N2Cc3ccccc3NC2=O)CC1	11.2	21 mL/min/kg	–
NCCCC[C@H](NC(=O)[C@@H](Cc1cc(Br)c(O)c(Br)c1)NC(=O)N1CCC(N2Cc3ccccc3NC2=O)CC1)C(=O)N1CCN(c2ccncc2)CC1 [OLCEGEPANT]	11.2	38 mL/min/kg	–
